Source: article PMC6120666 (The EMBO Journal, 2018)

How the values were obtained:
Assay in all cases: Drug affinity chromatography with c-ponatinib and LC-MS/MS (ponatinib interactome)
Type in all cases: binding
[1] = biological target: T1, proteins of U2OS cell lysate (Homo sapiens, UniProt P68363); conditions: TUBA1B;TUBA1A, Tubulin alpha-1B chain
T1 construct: Proteins enriched by c-ponatinib from U2OS cell lysate; endogenous in cells; host or cells: U2OS cell lysate
Method in brief: (§1)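 U2OS cell lysate in NP-40 lysis buffer (2 mg protein per pulldown) was incubated with amine-derivatized NHS beads for 2 h at 4 °C. Bound proteins were washed, eluted with 100 mM formic acid, reduced, alkylated and trypsin-digested, then identified by nano-UPLC–MS/MS on Orbitrap instruments with a 60 min gradient.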

[2] = biological target: T2, proteins of U2OS cell lysate (Homo sapiens, UniProt Q9Y6G9); conditions: DYNC1LI1, Cytoplasmic dynein 1 light intermediate chain 1
T2 construct: Proteins enriched by c-ponatinib from U2OS cell lysate; endogenous in cells; host or cells: U2OS cell lysate
Method in brief: as §1

[3] = biological target: T3, proteins of U2OS cell lysate (Homo sapiens, UniProt P22830); conditions: FECH, Ferrochelatase, mitochondrial
T3 construct: Proteins enriched by c-ponatinib from U2OS cell lysate; endogenous in cells; host or cells: U2OS cell lysate
Method in brief: as §1

[4] = biological target: T4, proteins of U2OS cell lysate (Homo sapiens, UniProt P23284); conditions: PPIB, Peptidyl-prolyl cis-trans isomerase B
T4 construct: Proteins enriched by c-ponatinib from U2OS cell lysate; endogenous in cells; host or cells: U2OS cell lysate
Method in brief: as §1

[5] = biological target: T5, proteins of U2OS cell lysate (Homo sapiens, UniProt P02545); conditions: LMNA, Prelamin-A/C;Lamin-A/C
T5 construct: Proteins enriched by c-ponatinib from U2OS cell lysate; endogenous in cells; host or cells: U2OS cell lysate
Method in brief: as §1

[6] = biological target: T6, proteins of U2OS cell lysate (Homo sapiens, UniProt P55084); conditions: HADHB, Trifunctional enzyme subunit beta, mitochondrial
T6 construct: Proteins enriched by c-ponatinib from U2OS cell lysate; endogenous in cells; host or cells: U2OS cell lysate
Method in brief: as §1

[7] = biological target: T7, proteins of U2OS cell lysate (Homo sapiens, UniProt P57678); conditions: GEMIN4, Gem-associated protein 4
T7 construct: Proteins enriched by c-ponatinib from U2OS cell lysate; endogenous in cells; host or cells: U2OS cell lysate
Method in brief: as §1

[8] = biological target: T8, proteins of U2OS cell lysate (Homo sapiens, UniProt P25705); conditions: ATP5A1, ATP synthase subunit alpha, mitochondrial
T8 construct: Proteins enriched by c-ponatinib from U2OS cell lysate; endogenous in cells; host or cells: U2OS cell lysate
Method in brief: as §1

[9] = biological target: T9, proteins of U2OS cell lysate (Homo sapiens, UniProt P26368); conditions: U2AF2, Splicing factor U2AF 65 kDa subunit
T9 construct: Proteins enriched by c-ponatinib from U2OS cell lysate; endogenous in cells; host or cells: U2OS cell lysate
Method in brief: as §1

[10] = biological target: T10, proteins of U2OS cell lysate (Homo sapiens, UniProt Q9NWB6); conditions: ARGLU1, Arginine and glutamate-rich protein 1
T10 construct: Proteins enriched by c-ponatinib from U2OS cell lysate; endogenous in cells; host or cells: U2OS cell lysate
Method in brief: as §1

[11] = biological target: T11, proteins of U2OS cell lysate (Homo sapiens, UniProt P26641); conditions: EEF1G, Elongation factor 1-gamma
T11 construct: Proteins enriched by c-ponatinib from U2OS cell lysate; endogenous in cells; host or cells: U2OS cell lysate
Method in brief: as §1

[12] = biological target: T12, proteins of U2OS cell lysate (Homo sapiens, UniProt Q9NTJ3); conditions: SMC4, Structural maintenance of chromosomes protein 4
T12 construct: Proteins enriched by c-ponatinib from U2OS cell lysate; endogenous in cells; host or cells: U2OS cell lysate
Method in brief: as §1

[13] = biological target: T13, proteins of U2OS cell lysate (Homo sapiens, UniProt Q9Y4K4); conditions: MAP4K5, Mitogen-activated protein kinase kinase kinase kinase 5
T13 construct: Proteins enriched by c-ponatinib from U2OS cell lysate; endogenous in cells; host or cells: U2OS cell lysate
Method in brief: as §1

[14] = biological target: T14, proteins of U2OS cell lysate (Homo sapiens, UniProt P35606); conditions: COPB2, Coatomer subunit beta
T14 construct: Proteins enriched by c-ponatinib from U2OS cell lysate; endogenous in cells; host or cells: U2OS cell lysate
Method in brief: as §1

[15] = biological target: T15, proteins of U2OS cell lysate (Homo sapiens, UniProt Q9UIA9); conditions: XPO7, Exportin-7
T15 construct: Proteins enriched by c-ponatinib from U2OS cell lysate; endogenous in cells; host or cells: U2OS cell lysate
Method in brief: as §1

[16] = biological target: T16, proteins of U2OS cell lysate (Homo sapiens, UniProt P09669); conditions: COX6C, Cytochrome c oxidase subunit 6C
T16 construct: Proteins enriched by c-ponatinib from U2OS cell lysate; endogenous in cells; host or cells: U2OS cell lysate
Method in brief: as §1

[17] = biological target: T17, proteins of U2OS cell lysate (Homo sapiens, UniProt P60174); conditions: TPI1, Triosephosphate isomerase
T17 construct: Proteins enriched by c-ponatinib from U2OS cell lysate; endogenous in cells; host or cells: U2OS cell lysate
Method in brief: as §1

[18] = biological target: T18, proteins of U2OS cell lysate (Homo sapiens, UniProt P21796); conditions: captured protein VDAC1, Rank 118
T18 construct: Proteins enriched by c-ponatinib from U2OS cell lysate; endogenous in cells; host or cells: U2OS cell lysate
Method in brief: as §1

[19] = biological target: T19, proteins of U2OS cell lysate (Homo sapiens, UniProt P20674); conditions: captured protein COX5A, Rank 122
T19 construct: Proteins enriched by c-ponatinib from U2OS cell lysate; endogenous in cells; host or cells: U2OS cell lysate
Method in brief: as §1

T11 sequence (P26641 whole entry): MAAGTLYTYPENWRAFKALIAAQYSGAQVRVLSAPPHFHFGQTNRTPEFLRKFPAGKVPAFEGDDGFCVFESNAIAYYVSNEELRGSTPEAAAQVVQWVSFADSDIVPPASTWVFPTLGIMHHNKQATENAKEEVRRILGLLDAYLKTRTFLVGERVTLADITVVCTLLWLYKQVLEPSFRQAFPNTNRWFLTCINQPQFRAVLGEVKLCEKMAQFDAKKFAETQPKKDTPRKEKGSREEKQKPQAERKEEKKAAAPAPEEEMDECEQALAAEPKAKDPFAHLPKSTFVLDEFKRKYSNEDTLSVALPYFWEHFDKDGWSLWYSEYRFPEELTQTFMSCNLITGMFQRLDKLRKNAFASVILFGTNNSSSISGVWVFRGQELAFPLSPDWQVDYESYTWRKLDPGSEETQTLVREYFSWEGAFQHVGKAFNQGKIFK
T3 sequence (P22830 55-423): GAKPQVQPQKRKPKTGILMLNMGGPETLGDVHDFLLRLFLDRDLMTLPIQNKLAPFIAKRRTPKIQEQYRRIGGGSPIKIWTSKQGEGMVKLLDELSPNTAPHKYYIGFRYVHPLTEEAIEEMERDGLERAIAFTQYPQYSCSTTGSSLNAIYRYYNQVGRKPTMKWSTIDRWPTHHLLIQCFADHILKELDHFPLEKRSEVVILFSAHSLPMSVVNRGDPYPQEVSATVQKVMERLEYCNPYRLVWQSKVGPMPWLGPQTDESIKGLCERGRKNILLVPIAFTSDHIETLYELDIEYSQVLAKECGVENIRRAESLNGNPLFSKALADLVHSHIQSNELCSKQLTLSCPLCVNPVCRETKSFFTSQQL
T9 sequence (P26368 whole entry): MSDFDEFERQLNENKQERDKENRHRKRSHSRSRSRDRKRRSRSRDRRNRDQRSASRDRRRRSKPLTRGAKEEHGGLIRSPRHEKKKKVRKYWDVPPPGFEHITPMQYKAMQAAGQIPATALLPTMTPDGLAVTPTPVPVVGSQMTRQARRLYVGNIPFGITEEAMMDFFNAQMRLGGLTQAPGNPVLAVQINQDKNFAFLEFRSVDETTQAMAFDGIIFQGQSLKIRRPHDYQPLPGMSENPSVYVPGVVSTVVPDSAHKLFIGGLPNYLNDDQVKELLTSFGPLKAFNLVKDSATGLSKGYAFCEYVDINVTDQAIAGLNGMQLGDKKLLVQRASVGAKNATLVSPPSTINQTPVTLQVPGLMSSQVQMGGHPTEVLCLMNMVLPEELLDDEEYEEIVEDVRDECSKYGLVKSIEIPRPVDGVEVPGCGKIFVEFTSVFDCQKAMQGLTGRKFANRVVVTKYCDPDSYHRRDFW
T13 sequence (Q9Y4K4 whole entry): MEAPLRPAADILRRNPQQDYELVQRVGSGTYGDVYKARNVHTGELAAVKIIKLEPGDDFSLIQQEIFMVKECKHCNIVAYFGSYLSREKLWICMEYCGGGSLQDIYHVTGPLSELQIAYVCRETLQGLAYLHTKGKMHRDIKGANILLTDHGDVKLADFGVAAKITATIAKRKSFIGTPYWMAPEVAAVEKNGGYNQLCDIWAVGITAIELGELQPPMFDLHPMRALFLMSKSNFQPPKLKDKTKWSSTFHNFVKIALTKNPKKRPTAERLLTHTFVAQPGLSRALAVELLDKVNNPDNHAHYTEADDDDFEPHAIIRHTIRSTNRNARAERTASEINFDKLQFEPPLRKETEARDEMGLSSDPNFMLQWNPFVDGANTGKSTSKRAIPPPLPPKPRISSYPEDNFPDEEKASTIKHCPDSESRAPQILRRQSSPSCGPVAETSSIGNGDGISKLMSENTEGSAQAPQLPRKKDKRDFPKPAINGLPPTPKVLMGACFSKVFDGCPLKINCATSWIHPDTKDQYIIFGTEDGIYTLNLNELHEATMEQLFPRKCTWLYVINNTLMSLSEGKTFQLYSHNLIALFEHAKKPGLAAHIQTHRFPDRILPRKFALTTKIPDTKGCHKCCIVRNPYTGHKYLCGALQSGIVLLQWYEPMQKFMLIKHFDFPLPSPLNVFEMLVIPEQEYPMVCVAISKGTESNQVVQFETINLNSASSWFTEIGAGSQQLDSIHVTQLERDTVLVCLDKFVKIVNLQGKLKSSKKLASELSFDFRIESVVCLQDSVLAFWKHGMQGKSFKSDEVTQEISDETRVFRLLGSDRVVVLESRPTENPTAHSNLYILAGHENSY
T4 sequence (P23284 34-216): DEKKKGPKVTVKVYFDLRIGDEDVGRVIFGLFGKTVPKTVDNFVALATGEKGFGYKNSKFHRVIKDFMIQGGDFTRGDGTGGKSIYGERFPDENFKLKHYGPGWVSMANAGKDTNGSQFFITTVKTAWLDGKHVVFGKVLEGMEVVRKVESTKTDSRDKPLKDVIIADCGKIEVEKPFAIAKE
T6 sequence (P55084 34-474): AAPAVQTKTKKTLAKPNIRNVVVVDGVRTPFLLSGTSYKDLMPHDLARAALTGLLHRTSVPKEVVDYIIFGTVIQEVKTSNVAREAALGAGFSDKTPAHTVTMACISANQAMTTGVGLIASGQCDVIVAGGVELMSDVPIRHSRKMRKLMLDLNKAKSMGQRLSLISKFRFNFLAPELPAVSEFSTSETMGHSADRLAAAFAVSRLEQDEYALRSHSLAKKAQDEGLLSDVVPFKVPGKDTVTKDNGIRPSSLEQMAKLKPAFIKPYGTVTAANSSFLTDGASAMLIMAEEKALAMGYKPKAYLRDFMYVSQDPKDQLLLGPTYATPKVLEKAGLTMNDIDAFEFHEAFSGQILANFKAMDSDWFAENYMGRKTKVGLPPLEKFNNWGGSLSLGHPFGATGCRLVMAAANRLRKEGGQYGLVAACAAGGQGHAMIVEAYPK
T14 sequence (P35606 whole entry): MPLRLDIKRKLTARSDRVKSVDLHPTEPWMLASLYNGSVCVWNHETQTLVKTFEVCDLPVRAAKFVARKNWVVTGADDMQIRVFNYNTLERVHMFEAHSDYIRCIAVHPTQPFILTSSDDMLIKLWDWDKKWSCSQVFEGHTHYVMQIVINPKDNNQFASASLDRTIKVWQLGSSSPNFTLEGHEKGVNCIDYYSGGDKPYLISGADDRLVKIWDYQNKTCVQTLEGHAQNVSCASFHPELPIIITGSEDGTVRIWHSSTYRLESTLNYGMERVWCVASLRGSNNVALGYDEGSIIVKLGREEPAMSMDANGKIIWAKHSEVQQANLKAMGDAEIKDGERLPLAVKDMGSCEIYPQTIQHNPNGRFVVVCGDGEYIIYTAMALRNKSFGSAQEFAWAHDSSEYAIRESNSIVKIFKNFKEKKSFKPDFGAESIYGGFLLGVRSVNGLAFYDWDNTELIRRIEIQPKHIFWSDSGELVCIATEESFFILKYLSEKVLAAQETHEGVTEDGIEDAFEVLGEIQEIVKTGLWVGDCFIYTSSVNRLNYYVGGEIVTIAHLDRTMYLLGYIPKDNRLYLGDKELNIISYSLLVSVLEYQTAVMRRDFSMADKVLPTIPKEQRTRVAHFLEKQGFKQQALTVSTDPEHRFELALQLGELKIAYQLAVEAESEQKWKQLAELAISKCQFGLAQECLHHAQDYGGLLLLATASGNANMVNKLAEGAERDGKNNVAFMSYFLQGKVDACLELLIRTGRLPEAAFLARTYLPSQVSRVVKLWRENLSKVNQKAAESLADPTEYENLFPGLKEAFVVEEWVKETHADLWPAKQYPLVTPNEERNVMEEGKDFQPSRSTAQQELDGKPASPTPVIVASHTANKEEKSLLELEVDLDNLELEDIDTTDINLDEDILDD
T10 sequence (Q9NWB6 whole entry): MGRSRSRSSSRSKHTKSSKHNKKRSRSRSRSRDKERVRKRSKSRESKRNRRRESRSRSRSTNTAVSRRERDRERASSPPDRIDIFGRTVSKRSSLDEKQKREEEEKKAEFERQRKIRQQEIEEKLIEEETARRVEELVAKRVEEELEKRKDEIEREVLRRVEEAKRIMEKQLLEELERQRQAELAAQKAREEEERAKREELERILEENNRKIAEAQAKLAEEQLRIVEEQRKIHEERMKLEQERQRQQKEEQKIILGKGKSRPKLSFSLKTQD
T16 sequence (P09669 whole entry): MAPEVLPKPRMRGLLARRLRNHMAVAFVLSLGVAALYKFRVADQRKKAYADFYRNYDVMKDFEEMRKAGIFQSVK
T18 sequence (P21796 whole entry): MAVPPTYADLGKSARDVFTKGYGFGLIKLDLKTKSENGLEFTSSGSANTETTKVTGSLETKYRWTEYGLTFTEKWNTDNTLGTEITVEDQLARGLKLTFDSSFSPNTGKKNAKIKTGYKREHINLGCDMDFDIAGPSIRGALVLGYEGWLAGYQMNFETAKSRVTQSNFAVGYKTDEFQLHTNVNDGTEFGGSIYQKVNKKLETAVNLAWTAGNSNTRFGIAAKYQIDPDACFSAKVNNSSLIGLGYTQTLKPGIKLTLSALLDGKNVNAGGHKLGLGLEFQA
T8 sequence (P25705 44-553): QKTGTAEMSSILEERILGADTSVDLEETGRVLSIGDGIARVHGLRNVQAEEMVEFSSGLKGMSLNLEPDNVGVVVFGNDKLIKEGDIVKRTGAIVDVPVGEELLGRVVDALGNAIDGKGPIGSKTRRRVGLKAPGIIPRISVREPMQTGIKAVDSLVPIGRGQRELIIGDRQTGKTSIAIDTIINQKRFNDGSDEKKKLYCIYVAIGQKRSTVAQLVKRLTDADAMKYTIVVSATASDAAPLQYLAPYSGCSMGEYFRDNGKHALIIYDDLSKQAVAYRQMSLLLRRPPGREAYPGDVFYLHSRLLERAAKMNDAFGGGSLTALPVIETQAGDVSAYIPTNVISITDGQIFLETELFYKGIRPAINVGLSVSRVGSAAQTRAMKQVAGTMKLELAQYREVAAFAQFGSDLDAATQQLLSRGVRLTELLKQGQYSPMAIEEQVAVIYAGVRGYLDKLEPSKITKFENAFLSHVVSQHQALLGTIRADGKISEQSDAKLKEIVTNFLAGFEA
T19 sequence (P20674 42-150): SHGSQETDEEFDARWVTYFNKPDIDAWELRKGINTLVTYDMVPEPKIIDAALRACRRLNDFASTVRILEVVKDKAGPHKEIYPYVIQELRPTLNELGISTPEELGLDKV

Structure (SMILES)	Average LFQ PON_WT [1]	Average LFQ PON_WT [2]	Average LFQ PON_WT [3]	Average LFQ PON_WT [4]	Average LFQ PON_WT [5]	Average LFQ PON_WT [6]	Average LFQ PON_WT [7]	Average LFQ PON_WT [8]	Average LFQ PON_WT [9]	Average LFQ PON_WT [10]	Average LFQ PON_WT [11]	Average LFQ PON_WT [12]	Average LFQ PON_WT [13]	Average LFQ PON_WT [14]	Average LFQ PON_WT [15]	Average LFQ PON_WT [16]	Average LFQ PON_WT [17]	Average LFQ intensity [18]	Average LFQ intensity [19]
Cc1ccc(C(=O)Nc2ccc(CN3CCN(C)CC3)c(C(F)(F)F)c2)cc1C#Cc1cnc2cccnn12 [PON]	27.3228	23.2986	25.7972	20.4971	23.7594	23.6834	20.1071	26.7182	21.5048	21.1214	25.0677	21.2975	19.9263	21.0921	20.002	20.8234	20.2344	–	–
Cc1ccc(C(=O)Nc2ccc(CN3CCN(CCCN)CC3)c(C(F)(F)F)c2)cc1C#Cc1cnc2cccnn12 [c-ponatinib, reference compound]	–	–	–	–	–	–	–	–	–	–	–	–	–	–	–	–	–	23.117	23.049
